From US8192962B2, “Processes for detecting toxic substances” (Daikin Industries, Ltd., priority 2001, dated 2012)

System: Stress protein genes
Test: DNA chip mRNA expression in yeast, stress protein genes (Table 6)
Format: cell-based, Saccharomyces cerevisiae S288C
How it was run: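 S. cerevisiae S288C grown at 25° C. in YPD to log phase, then exposed 2 h to a toxicant at a growth-inhibiting, non-lethal concentration; untreated cells as control. Poly(A) mRNA reverse-transcribed with Cy3-dUTP or Cy5-dUTP, hybridized >12 h at 65° C. to whole-genome yeast DNA chip; value = fluorescence ratio treated/untreated.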

Measured: The level of expressed mRNA in the presence of chemical substance/The level of expressed mRNA in the absence of chemical substance

[Cl][Pb][Cl] [(4), PbCl2]
1.4: yeast gene YBL093C | yeast gene YDR258C | yeast gene YDR293C | yeast gene YDR436W | yeast gene YOL161C
5.1: yeast gene YEL039C | yeast gene YPL223C
1.8: yeast gene YCR083W | yeast gene YDR155C | yeast gene YER057C
1.2: yeast gene YBR126C | yeast gene YFL020C | yeast gene YKR053C | yeast gene YLL039C
1.0: yeast gene YER042W | yeast gene YGL073W | yeast gene YNL241C | yeast gene YNR076W | yeast gene YPL140C
0.5: yeast gene YHL028W
1.5: yeast gene YDL022W | yeast gene YDL025C | yeast gene YDR033W | yeast gene YFR052W | yeast gene YJL158C
2.9: yeast gene YHR030C | yeast gene YOR208W
1.3: yeast gene YHL046C | yeast gene YIL033C | yeast gene YML007W | yeast gene YPL059W | yeast gene YPR026W
0.9: yeast gene YAL005C | yeast gene YBR067C | yeast gene YER125W | yeast gene YFL016C | yeast gene YHR057C | yeast gene YKL164C | yeast gene YLR109W | yeast gene YMR173W | yeast gene YMR186W | yeast gene YPL240C
2.1: yeast gene YDR077W | yeast gene YER103W
0.6: yeast gene YIL011W | yeast gene YOL064C | yeast gene YOR010C
1.1: yeast gene YEL030W | yeast gene YGL181W | yeast gene YJL159W | yeast gene YMR021C | yeast gene YNL064C | yeast gene YOR008C | yeast gene YPL106C | yeast gene YPL194W
1.7: yeast gene YBR054W | yeast gene YCL035C | yeast gene YLL026W
8.6: yeast gene YCR021C
6.2: yeast gene YLR006C
0.8: yeast gene YDR098C | yeast gene YJL128C | yeast gene YJR090C | yeast gene YLL024C | yeast gene YOR027W
3.8: yeast gene YPR005C
1.6: yeast gene YBL075C | yeast gene YDR519W | yeast gene YJL165C | yeast gene YLR259C
10.5: yeast gene YBR072W
2.4: yeast gene YGR088W
1.9: yeast gene YAL015C | yeast gene YBR044C | yeast gene YBR169C | yeast gene YHR104W | yeast gene YKL163W | yeast gene YML070W
2.2: yeast gene YKL161C
0.7: yeast gene YKL210W | yeast gene YOR009W
2.0: yeast gene YGL115W | yeast gene YIR038C | yeast gene YNL160W
2.3: yeast gene YIR037W
11.0: yeast gene YFL014W
2.6: yeast gene YDR513W | yeast gene YLL060C
